Measurements published in ChEMBL document CHEMBL4402511, “Development of covalent antagonists for β1- and β2-adrenergic receptors” (Bioorg Med Chem, 2019).

What was measured:
Homo sapiens [1] = species on record: Homo sapiens; assay: (§1) Displacement of [3H]CGP12177 from human beta2 adrenoceptor H2.64C mutant expressed in HEK293T cell membranes
Mus musculus [2] = species on record: Mus musculus; assay: Covalent binding affinity to mouse beta1 adrenoceptor I2.64C mutant expressed in HEK293T cell membranes assessed as covalent blockage of binding site at 50 nM measured after 120 mins by [3H]CGP12177 binding based radioligand depletion assay relative to control
Mus musculus [3] = species on record: Mus musculus; assay: (§2) Displacement of [3H]CGP12177 from mouse beta1 adrenoceptor I2.64C mutant expressed in HEK293T cell membranes
Homo sapiens [4] = species on record: Homo sapiens; assay: Covalent binding affinity to human beta2 adrenoceptor H2.64C mutant expressed in HEK293T cell membranes assessed as covalent blockage of binding site at 1 nM measured after 90 mins by [3H]CGP12177 binding based radioligand depletion assay relative to control
[5] = target: Beta-1 adrenergic receptor (Mus musculus, UniProt P34971); assay: Displacement of [3H]CGP12177 from mouse beta1 adrenoceptor expressed in HEK293T cell membranes
Chain of Beta-1 adrenergic receptor (P34971 whole entry): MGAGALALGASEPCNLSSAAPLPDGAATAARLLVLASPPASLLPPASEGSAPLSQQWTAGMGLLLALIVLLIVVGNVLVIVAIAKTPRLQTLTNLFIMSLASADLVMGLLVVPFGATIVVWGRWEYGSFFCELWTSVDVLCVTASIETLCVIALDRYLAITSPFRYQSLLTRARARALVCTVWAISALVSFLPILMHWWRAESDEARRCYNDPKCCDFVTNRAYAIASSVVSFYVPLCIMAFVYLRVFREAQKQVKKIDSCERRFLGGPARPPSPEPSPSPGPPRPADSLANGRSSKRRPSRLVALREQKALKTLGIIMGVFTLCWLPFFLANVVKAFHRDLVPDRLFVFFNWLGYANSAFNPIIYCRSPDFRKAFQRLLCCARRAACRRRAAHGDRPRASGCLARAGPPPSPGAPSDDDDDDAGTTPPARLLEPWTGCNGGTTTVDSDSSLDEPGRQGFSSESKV

[6] = Selectivity index, ratio of Ki for displacement of [3H]CGP12177 from human beta2 adrenoceptor expressed in CHO cell membranes to Ki for displacement of [3H]CGP12177 from mouse beta1 adrenoceptor expressed in HEK293T cell membranes
Homo sapiens [7] = species on record: Homo sapiens; assay: Covalent binding affinity to human beta2 adrenoceptor H2.64C mutant expressed in HEK293T cell membranes assessed as covalent blockage of binding site at 1 nM measured after 15 mins by [3H]CGP12177 binding based radioligand depletion assay relative to control
[8] = target: Beta-2 adrenergic receptor (Homo sapiens, UniProt P07550); assay: Displacement of [3H]CGP12177 from human beta2 adrenoceptor expressed in CHO cell membranes
Chain of Beta-2 adrenergic receptor (P07550 whole entry): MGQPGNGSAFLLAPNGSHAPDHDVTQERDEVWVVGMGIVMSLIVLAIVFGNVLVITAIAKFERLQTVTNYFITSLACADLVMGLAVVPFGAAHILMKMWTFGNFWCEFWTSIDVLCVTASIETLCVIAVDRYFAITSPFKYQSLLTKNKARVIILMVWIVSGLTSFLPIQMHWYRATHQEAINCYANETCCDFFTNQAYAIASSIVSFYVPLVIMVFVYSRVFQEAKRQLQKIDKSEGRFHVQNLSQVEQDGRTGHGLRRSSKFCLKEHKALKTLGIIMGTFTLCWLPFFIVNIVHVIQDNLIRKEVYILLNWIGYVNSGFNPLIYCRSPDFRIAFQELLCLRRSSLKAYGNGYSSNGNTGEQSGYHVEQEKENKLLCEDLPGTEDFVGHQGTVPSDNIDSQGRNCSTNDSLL

[9] = as §1
Homo sapiens [10] = species on record: Homo sapiens; assay: Covalent binding affinity to human beta2 adrenoceptor H2.64C mutant expressed in HEK293T cell membranes assessed as covalent blockage of binding site at 50 nM measured after 120 mins by [3H]CGP12177 binding based radioligand depletion assay relative to control
Homo sapiens [11] = species on record: Homo sapiens; assay: Covalent binding affinity to human beta2 adrenoceptor H2.64C mutant expressed in HEK293T cell membranes assessed as covalent blockage of binding site at 50 nM measured after 30 mins by [3H]CGP12177 binding based radioligand depletion assay relative to control
Homo sapiens [12] = species on record: Homo sapiens; assay: Covalent binding affinity to human beta2 adrenoceptor H2.64C mutant expressed in HEK293T cell membranes assessed as covalent blockage of binding site measured after 15 mins by [3H]CGP12177 binding based radioligand depletion assay relative to control
Mus musculus [13] = species on record: Mus musculus; assay: Covalent binding affinity to mouse beta1 adrenoceptor I2.64C mutant expressed in HEK293T cell membranes assessed as covalent blockage of binding site at 1 uM measured after 120 mins by [3H]CGP12177 binding based radioligand depletion assay relative to control
Homo sapiens [14] = species on record: Homo sapiens; assay: Covalent binding affinity to human beta2 adrenoceptor H2.64C mutant expressed in HEK293T cell membranes assessed as covalent blockage of binding site at 1 uM measured after 120 mins by [3H]CGP12177 binding based radioligand depletion assay relative to control
Homo sapiens [15] = species on record: Homo sapiens; assay: Covalent binding affinity to human beta2 adrenoceptor H2.64C mutant expressed in HEK293T cell membranes assessed as covalent blockage of binding site at 5 nM measured after 30 mins by [3H]CGP12177 binding based radioligand depletion assay relative to control
Homo sapiens [16] = species on record: Homo sapiens; assay: Covalent binding affinity to human beta2 adrenoceptor H2.64C mutant expressed in HEK293T cell membranes assessed as covalent blockage of binding site at 5 nM measured within 15 mins by [3H]CGP12177 binding based radioligand depletion assay relative to control
Homo sapiens [17] = species on record: Homo sapiens; assay: Covalent binding affinity to human beta2 adrenoceptor H2.64C mutant expressed in HEK293T cell membranes assessed as covalent blockage of binding site at 50 nM measured after 15 mins by [3H]CGP12177 binding based radioligand depletion assay relative to control
Homo sapiens [18] = species on record: Homo sapiens; assay: Covalent binding affinity to human beta2 adrenoceptor H2.64C mutant expressed in HEK293T cell membranes assessed as covalent blockage of binding site at 50 nM measured after 90 mins by [3H]CGP12177 binding based radioligand depletion assay relative to control
[19] = as §2
Homo sapiens [20] = species on record: Homo sapiens; assay: Covalent binding affinity to human beta2 adrenoceptor H2.64C mutant expressed in HEK293T cell membranes assessed as covalent blockage of binding site at 80 nM measured after 30 mins by [3H]CGP12177 binding based radioligand depletion assay relative to control

Row | Ki [5] [nM] | Ki [8] [nM] | SMILES | Ratio Ki [6] | Ki [9] [nM] | further results
1 | 150 | 2200 | COc1cc(CCNC[C@H](O)COc2ccc(-c3nc(C(F)(F)F)cn3C)cc2)ccc1OCCSSCCN | 15 | – | KiH (Homo sapiens [1]): 3.6 nM; KiL (Homo sapiens [1]): 2.5 µM; Activity (Mus musculus [2]): 64 to 76%; KiH (Mus musculus [3]): 0.56 nM; KiL (Mus musculus [3]): 280 nM; Activity (Homo sapiens [4]): < 100%; Activity (Homo sapiens [7]): 84 to 92%
2 | 22 | 20 | COCCc1ccc(OC[C@@H](O)CNCCc2ccc(OCCCSSCCN)c(OC)c2)cc1 | 0.91 | 1.5 | Activity (Homo sapiens [10]): 100%; Activity (Homo sapiens [11]): 100%
3 | 5.3 | – | CC(C)NCC(O)COc1ccc(COCCOC(C)C)cc1 (racemic) [BISOPROLOL] | – | – | –
4 | 33 | 1.1 | COc1cc(CCNC[C@@H](O)COc2cccc3ccccc23)ccc1OCCCSSCCN | 0.033 | 1.2 | –
5 | 29 | 3.4 | COc1cc(CCNC[C@@H](O)COc2cccc3ccccc23)ccc1OCCSSCCN | 0.12 | 0.75 | –
6 | – | – | COc1cc(CCNC[C@H](O)c2ccc(O)c(O)c2)ccc1OCCSSCCN | – | – | Activity (Homo sapiens [12]): 71%
7 | 49 | 2000 | Cn1cc(C(F)(F)F)nc1-c1ccc(OC[C@@H](O)CNCCOc2ccc(OCCSSCCN)c(C(N)=O)c2)cc1 | 41 | – | KiH (Homo sapiens [1]): 36 nM; KiL (Homo sapiens [1]): 8.4 µM; Activity (Mus musculus [13]): 74%; KiH (Mus musculus [3]): 0.071 nM; KiL (Mus musculus [3]): 270 nM; Activity (Homo sapiens [14]): 79%
8 | 220 | 320 | COCCc1ccc(OC[C@H](O)CNCCc2ccc(OCCCSSCCN)c(OC)c2)cc1 | 1.5 | 26 | –
9 | 1.4 | – | Cn1cc(C(F)(F)F)nc1-c1ccc(OCC(O)CNCCOc2ccc(O)c(C(N)=O)c2)cc1 (centres undefined) [CGP-20712A] | – | – | –
10 | 49 | – | COCCc1ccc(OCC(O)CNC(C)C)cc1 (racemic) [METOPROLOL] | – | – | –
11 | 740 | 1300 | COCCc1ccc(OC[C@H](O)CNCCc2ccc(OCCSSCCN)c(OC)c2)cc1 | 1.8 | 66 | –
12 | 0.49 | 0.16 | COc1cc(CCNC[C@H](O)COc2cccc3ccccc23)ccc1OCCSSCCN | 0.33 | 0.083 | Activity (Homo sapiens [15]): 100%; Activity (Homo sapiens [16]): 77 to 92%
13 | 2.6 | 51 | COc1cc(CCNC[C@H](O)COc2ccc(COCCOC(C)C)cc2)ccc1OCCSSCCN | 20 | 0.26 | Activity (Homo sapiens [17]): 84 to 92%; Activity (Homo sapiens [18]): < 100%; Activity (Mus musculus [2]): 64 to 76%; Ki [19]: 2 nM
14 | 1.1 | 0.073 | COc1cc(CCNC[C@H](O)COc2cccc3ccccc23)ccc1OCCCSSCCN | 0.066 | 0.18 | Activity (Homo sapiens [15]): 100%; Activity (Homo sapiens [16]): 77 to 92%
15 | 71 | 1400 | Cn1cc(C(F)(F)F)nc1-c1ccc(OC[C@@H](O)CNCCOc2ccc(OCCCSSCCN)c(C(N)=O)c2)cc1 | 20 | – | KiH (Homo sapiens [1]): 77 nM; KiL (Homo sapiens [1]): 3.6 µM; Activity (Mus musculus [13]): 53 to 67%; KiH (Mus musculus [3]): 3.1 nM; KiL (Mus musculus [3]): 480 nM; Activity (Homo sapiens [14]): 53 to 67%
16 | 27 | 57 | COCCc1ccc(OC[C@@H](O)CNCCc2ccc(OCCSSCCN)c(OC)c2)cc1 | 2.1 | 3.8 | Activity (Homo sapiens [20]): 100%
